Patent publication US20230228744A1, “DRY EYE DISEASE BIOMARKERS AND THEIR USE FOR TREATMENT” (Aldeyra Therapeutics, Inc., priority 2020, published 2023)

Experiments:
[1] = tested on: subjects with dry eye disease; assay: Phase 2/3 (TRANQUILITY) run-in cohort, dry eye signs and symptoms (environmental dosing and dry eye chamber); type: in vivo, human
Description: Changes over 24 hours after the first dose on Day 1 and changes over 90 minutes in the CAE will be assessed via mixed effect model for repeated measures (MMRM) of change from baseline (pre-dose Day 1), with baseline score as a covariate, and time and test article group as factors. For assessments that include both eyes, eye will be added as a factor.
Schirmer's Test will be assessed via MMRM of change from baseline (screening), with baseline score as a covariate, and pre/post dose, eye, and test article group as factors.
This study is a Phase 2/3, multi-center, randomized, double-masked, parallel design, vehicle-controlled trial designed to evaluate the efficacy and safety of 0.25% Reproxalap Ophthalmic Solution compared to vehicle in subjects with dry eye disease. Approximately twenty subjects will be enrolled in the Initial Cohort, and approximately 300 subjects will be enrolled in the Main Cohort. Male and female subjects at least 18 years of age with a subject-reported history of dry eye disease in both eyes and meeting all other eligibility criteria will be randomized to receive reproxalap or vehicle in a 1:1 ratio (approximately 150 subjects in each treatment group).
This study uses a challenge-model of dry eye disease known as a “dry eye chamber.” Challenge-model trials utilizing a controlled chamber are an FDA accepted design for pivotal endpoints. See, for example, FDA published “Dry Eye: Developing Drugs for Treatment” draft guidance; December 2020.
Dry eye chambers control relative humidity, temperature, airflow, and visual tasking in order to stress the ocular surface. Chambers simulate a “bad day” scenario in the life of a dry eye disease sufferer. Trial designs utilizing chambers are able to confirm the utility of drugs with rapid onset of action during an acute ocular surface challenge.
Secondary Endpoints: • Visual analog scale eye dryness score assessed over 24 hours after first dose on Day 1, and over 90 minutes in CAE® (Key Secondary Symptom Endpoint) • Ora Calibra® Ocular Discomfort Scale assessed over 24 hours after first dose on Day 1, and over 90 minutes in CAE® • Ocular Discomfort & 4-Symptom Questionnaire assessed over 24 hours after first dose on Day 1, and before and after CAE® • Ora Calibra® Conjunctival Allergen Challenge Ocular Itching Scale assessed over 24 hours after first dose on Day 1, and before and after CAE® • Schirmer's Test change from baseline before and after the final dose on Day 1 • Change in tear RASP levels before and after Dose 1 and 2 on Day 1 and Dose 3 on Day 2. Conjunctival redness over 24 hours after first dose on Day 1.
Visit 1 (Day −14 −16/+2, Screening) • Informed Consent and HIPAA • Demographics (e.g. gender, date of birth, race, ethnicity) • Medical/Medication & Ocular History • Urine Pregnancy Test (as needed) • Symptom Questionnaires: • a. Ocular Discomfort & 4-Symptom Questionnaire • b. Ora Calibra® Ocular Discomfort Scale • c. Ocular Dryness Visual Analog Scale • d. Ora Calibra® Conjunctival Allergen Challenge Ocular Itching Scale • Visual Acuity (ETDRS) • Slit Lamp Biomicroscopy with Conjunctival Redness assessment • Fluorescein Staining using the Ora Calibra® Corneal and Conjunctival Staining Scale • Inclusion/Exclusion Criteria Review • In-Office Vehicle Instillation by trained site staff (within 10 minutes prior to CAE® entry) • CAE® Exposure (90 minutes, vehicle administration at 45 minutes) with: • a. Ocular Dryness Visual Analog Scale every 5 minutes • b. Ora Calibra® Ocular Discomfort Scale every 5 minutes • c. Conjunctival Redness Photography at 0, 5, 10, 15, 20, 30, 45 (before 45-minute dose), 50, 55, 60, 65, 75, 90 minutes (+/−2 minutes) via digital photography • Slit Lamp Biomicroscopy with Conjunctival Redness assessment • Schirmer Test • Intraocular Pressure • Dilated Exam • Schedule for Visit 2 […]

dry eye disease patients = assay: Phase 3 clinical trial (RENEW-Part 1), VAS ocular dryness score over 12-week chronic treatment; type: in vivo, human; conditions: 0.25% reproxalap, 12-week treatment, as early as one week after treatment initiation
Description: Treatment Difference of induction-maintenance dosing, defined as the difference between the changes from baseline for the evaluated drug vs. vehicle (LS Mean Difference ±95% CI). Ocular Dryness Score co-primary endpoint assessed in pre-specified patient population having an OD4S dryness baseline score of ≥3 (N=170). […] […] Source: Reproxalap RENEW-Part 1 clinical trial results and TRANQUILITY Run-In Cohort initial results. VAS=Visual Analog Scale; OD4S=Ocular Discomfort & 4-Symptom; CAC=Conjunctival Allergen Challenge; MMRM=Mixed Effect Model Repeated Measures.

[2] = tested on: RASP (reactive aldehyde species); assay: In vitro RASP elimination by reproxalap; type: biochemical; conditions: reproxalap at equimolar concentrations
Description: Regarding the use of tear RASP levels as a clinical endpoint, it is important to note that this is (to date) unprecedented. The FDA has not agreed to the use of RASP before as a clinical endpoint. In this regard, we have reached agreement with the US Food and Drug Administration (FDA) for the use of RASP (reactive aldehyde species) as an objective sign for the treatment of dry eye disease. RASP are pre-cytokine pro-inflammatory mediators that are elevated in the tears of patients with dry eye disease, and correlate with dry eye disease symptoms and signs. […] In in vitro studies, RASP were eliminated within 60 to 90 minutes when exposed to reproxalap at equimolar concentrations. […] The use of RASP as a trial endpoint represents the first novel objective sign for the treatment in dry eye disease in over a decade.

patients = assay: Overall clinical safety experience of topical ocular reproxalap; type: in vivo, human
[3] = Day 1, 24 hours of QID dosing, N = 12, vehicle +0.1, P 0.006

SMILES: CC(C)(O)c1nc2ccc(Cl)cc2cc1N [reproxalap, Reproxalap]
- Change From Baseline, OD4S: Dryness (0-5) [1, 3]: −1.2
- Change From Baseline, OD4S: Grittiness (0-5) [1, 3]: −1.1
- Change From Baseline, OD4S: Discomfort (0-5) ([1]; Day 1, 24 hours of QID dosing, N = 12, vehicle +0.4, P 0.003): −0.7
- Change From Baseline, Ocular Discomfort Scale (0-4) ([1]; Day 1, 24 hours of QID dosing, N = 12, vehicle +0.4, P 0.07): −0.7
- Change From Baseline, OD4S: Sting (0-5) ([1]; Day 1, 24 hours of QID dosing, N = 12, vehicle +0.4, P 0.23): −0.1
- Change From Baseline, OD4S: Burn (0-5) ([1]; Day 1, 24 hours of QID dosing, N = 12, vehicle +0.8, P 0.07): −0.1
- Change From Baseline, Schirmer's Test ([1]; Day 1, improvement after a single dose, N = 12, vehicle +1.3, P 0.30): +3.4 mm
- Change From Baseline, VAS Dryness (0-100) ([1]; after environmental dosing, Day 1, 24 hours of QID dosing, 0.25% reproxalap, N = 12, vehicle +2, P 0.003): −26
- onset of acute improvements in ocular symptoms and objective sign after administration ([1]; dry eye chamber): within minutes
- Ocular Discomfort Score vs vehicle ([1]; dry eye chamber, run-in cohort, p<0.0001): statistically significant improvement over vehicle
- VAS Ocular Dryness vs vehicle ([1]; dry eye chamber, run-in cohort, p=0.001): statistically significant improvement over vehicle
- ocular redness vs vehicle ([1]; dry eye chamber, run-in cohort, p=0.03): statistically significant improvement over vehicle
- symptom improvements over vehicle (VAS ocular dryness score and multiple symptoms) (dry eye disease patients): statistically significant symptom improvements
- time to elimination of RASP [2]: 60 to 90 min
- most commonly reported adverse event in clinical trials (patients; over 1,100 patients): mild instillation site irritation
- observed safety concerns (patients; studied in over 1,100 patients): no observed safety concerns
